# Like-named read-outs stand apart in the source and are kept apart here.
# Biological target: Human Factor D (Homo sapiens (Human), UniProt P00746)
# Assay: Human Factor D Assay
# Format: biochemical
# Experimental: Human Factor D (purified from human serum, Complement Technology, Inc.) at 80 nM final concentration was incubated with test compound at various concentrations for 5 minutes at room temperature in 50 mM Tris, 1M NaCl, pH 7.5. A synthetic substrate Z-L-Lys-SBzl and DTNB (Ellman's reagent) are added to final concentrations of 100 μM each. […] IC50 values are calculated by nonlinear regression of complement Factor D reaction rates as a function of test compound concentration.
# [1] = Human Factor D 80 nM, substrate Z-L-Lys-SBzl, Table 3, read-out: IC5 (Stars)
# [2] = Human Factor D 80 nM, substrate Z-L-Lys-SBzl, star classes, read-out: IC50
# Human Factor D, sequence (P00746 26-253): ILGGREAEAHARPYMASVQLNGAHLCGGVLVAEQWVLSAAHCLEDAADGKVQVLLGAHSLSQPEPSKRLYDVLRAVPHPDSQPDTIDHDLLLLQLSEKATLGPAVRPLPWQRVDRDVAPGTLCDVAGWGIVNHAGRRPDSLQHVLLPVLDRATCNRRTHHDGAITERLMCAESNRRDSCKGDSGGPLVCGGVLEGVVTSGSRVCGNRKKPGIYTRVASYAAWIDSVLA
compound,measurement,setting,value
"CC(=O)c1cn(CC(=O)N2C[C@H](F)C[C@H]2C(=O)NCc2ccncc2)c2ccc(-c3ccnnc3)cc12 [Compound 40, (2S,4R)-1-(2-(3-acetyl-5-(pyridazin-4-yl)-1H-indol-1-yl)acetyl)-4-fluoro-N-(pyridin-4-ylmethyl)pyrrolidine-2-carboxamide]",IC50,,1000 to 10000 nM
"NC(=O)c1nn(CC(=O)N2CCC[C@]2(F)C(=O)Nc2cccnc2)c2ccc(-c3ccnnc3)cc12 [Compound 47, 1-(2-((2S,4R)-2-fluoro-2-(pyridin-3-ylcarbamoyl)pyrroli-din-1-yl)-2-oxoethyl)-5-(pyridazin-4-yl)-1H-indazole-3-carboxamide]",IC50,"Human Factor D 80 nM, substrate Z-L-Lys-SBzl, read-out: IC50",> 10000 nM
"CC(=O)c1nn(CC(=O)N2C[C@H](F)C[C@H]2C(=O)NC2CCN(C(=O)c3cn[nH]c3)CC2)c2ccc(-c3cnc(C)nc3)cc12 [Compound 261, (2S,4R)-N-(1-(1H-pyrazole-4-carbonyl)piperidin-4-yl)-1-(2-(3-acetyl-5-(2-methylpyrimidin-5-yl)-1H-indazol-1-yl)acetyl)-4-fluoropyrrolidine-2-carboxamide]",IC50,read-out: IC50,< 1000 nM
CC(=O)c1nn(CC(=O)N2C[C@H](F)C[C@H]2C(=O)Nc2cccc(Br)n2)c2ccc(-c3nc4c(s3)CCCC4)cc12 [Compound 297],IC50,"Human Factor D, assay of Example 8, read-out: IC50",< 1000 nM
"Cc1ncc(-c2ccc3c(c2)c([C@H](C)O)nn3CC(=O)N2[C@@H]3C[C@@H]3C[C@H]2C(=O)Nc2cccc(Br)n2)cn1 [Compound 409, (1R,3S,5R)—N-(6-Bromopyridin-2-yl)-2-(2-(3-((S)-1-hydroxyethyl)-5-(2-methylpyrimidin-5-yl)-1H-indazol-1-yl)acetyl)-2-azabicyclo[3.1.0]hexane-3-carboxamide]",IC50,[1],< 1000 nM
"Cc1cccc(C[C@H](O)[C@@H]2C[C@@H](F)CN2C(=O)Cn2cc(C(N)=O)c3cc(-c4cnc(C)nc4)ccc32)n1 [Compound 455, 1-(2-((2S,4R)-4-fluoro-2-((S)-1-hydroxy-2-(6-methylpyridin-2-yl)ethyl)pyrrolidin-1-yl)-2-oxoethyl)-5-(2-methylpyrimidin-5-yl)-1H-indole-3-carboxamide]",IC50,[1],> 10000 nM
"Cc1cccc(NC(=O)[C@@H]2[C@H]3CC[C@H](C3)N2C(=O)Cn2cc(C(N)=O)c3cc(-c4ccc(F)nc4)ccc32)n1 [Compound 500, 5-(6-Fluoropyridin-3-yl)-1-(2-((1R,3S,4S)-3-(6-methylpyridin-2-ylcarbamoyl)-2-azabicyclo[2.2.1]heptan-2-yl)-2-oxoethyl)-1H-indole-3-carboxamide]",IC50,[1],> 10000 nM
"CC(=O)c1nn(CC(=O)N2C[C@@H](C)C[C@H]2C(=O)Nc2nc(Br)ccc2C)c2ccc(-c3cnc(C)nc3)cc12 [Compound 643, (2S,4S)-1-(2-(3-Acetyl-5-(2-methylpyrimidin-5-yl)-1H-indazol-1-yl)acetyl)-N-(6-bromo-3-methylpyridin-2-yl)-4-methylpyrrolidine-2-carboxamide]",IC50,[2],< 1000 nM
"CC(=O)c1nn(CC(=O)N2C[C@H](F)C[C@@H]2C(=O)Nc2nc(Br)ccc2C(=O)O)c2ccc(-c3cnc(C)nc3)cc12 [Compound 648, 2-((2R,4R)-1-(2-(3-Acetyl-5-(2-methylpyrimidin-5-yl)-1H-indazol-1-yl)acetyl)-4-fluoropyrrolidine-2-carboxamido)-6-bromonicotinic acid]",IC50,,1000 to 10000 nM
"Cc1cccc(NC(=O)[C@@H]2[C@H]3CC[C@H](C3)N2C(=O)Cn2cc(C(N)=O)c3cc(-c4n[nH]c5ccsc45)ccc32)n1 [Compound 704, 1-(2-((1R,3S,4S)-3-(6-Methylpyridin-2-ylcarbamoyl)-2-azabicyclo[2.2.1]heptan-2-yl)-2-oxoethyl)-5-(1H-thieno[3,2-c]pyrazol-3-yl)-1H-indole-3-carboxamide]",IC50,[2],> 10000 nM
"COc1ccc(N2C[C@@H]3CC[C@H]2C=C3c2ccc3c(c2)c(C(C)=O)nn3CC(=O)N2C[C@H](F)C[C@H]2C(=O)Nc2cccc(Br)n2)cc1 [Compound 721, (2S,4R)-1-(2-(3-Acetyl-5-((1S,4R)-2-(4-methoxyphenyl)-2-azabicyclo[2.2.2]oct-5-en-5-yl)-1H-indazol-1-yl)acetyl)-N-(6-bromopyridin-2-yl)-4-fluoropyrrolidine-2-carboxamide]",IC50,[2],< 1000 nM
"CC(=O)c1nn(CC(=O)N2C[C@H](F)C[C@H]2C(=O)Nc2cccc(Br)n2)c2ccc(-c3cnc(S(C)(=N)=O)nc3)cc12 (stereo partly drawn) [Compound 732, (2S,4R)-1-(2-(3-Acetyl-5-(2-(S-methylsulfonimidoyl)pyrimidin-5-yl)-1H-indazol-1-yl)acetyl)-N-(6-bromopyridin-2-yl)-4-fluoropyrrolidine-2-carboxamide]",IC50,[2],< 1000 nM
"CC(=O)c1nn(CC(=O)N2[C@H]3CC[C@H](CC3)[C@H]2C(=O)Nc2cccc(Br)n2)c2ccc(-c3cnc(C)nc3)cc12 [Compound 734, (1R,3S,4R)-2-(2-(3-Acetyl-5-(2-methylpyrimidin-5-yl)-1H-indazol-1-yl)acetyl)-N-(6-bromopyridin-2-yl)-2-azabicyclo[2.2.2]octane-3-carboxamide]",IC50,[2],< 1000 nM

# — patent publication US10822352B2, “Aryl, heteroaryl, and heterocyclic compounds for treatment of medical disorders” (Achillion Pharmaceuticals, Inc., priority 2015, dated 2020)
